# Measured values: the supplement of paper PMC10307832
# Key:
# Experiment in all cases: relative viability (nuclei count vs DMSO), 5 days (fraction); higher = more cells survive
# XMD8-85 + Vorinostat = compound: CN1CCN(CC1)C2=CC(=C(C=C2)NC3=NC=C4C(=N3)N(C5=CC=CC=C5C(=O)N4C)C)OC [XMD8-85] + O=C(CCCCCCC(=O)Nc1ccccc1)NO [Vorinostat] (partner 1 µM)
# How it was run: (§1)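 The day after seeding in 1536-well plates, lung cancer cell lines were treated by pin tool with a single drug, or with a fixed anchor-drug dose together with five library-drug doses (not always all listed) in √10 steps. After 5 days, a combined fix-and-stain solution (final 0.05% Triton X-100, 1% formaldehyde, 1 ug/ml Hoechst) was added. Nuclei counted on 4× images gave relative viability as treated counts over vehicle counts, reported as the median of duplicate plates.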
# 4EGI-1 + Lapatinib = compound: O=C(O)C(Cc1ccccc1[N+](=O)[O-])=NNc1nc(-c2ccc(Cl)c(Cl)c2)cs1 (mixture of isomers) [4EGI-1] + CS(=O)(=O)CCNCc1ccc(-c2ccc3ncnc(Nc4ccc(OCc5cccc(F)c5)c(Cl)c4)c3c2)o1 [Lapatinib] (partner 2 µM)
# How it was run: as §1
# XMD8-85 + Phenformin = compound: CN1CCN(CC1)C2=CC(=C(C=C2)NC3=NC=C4C(=N3)N(C5=CC=CC=C5C(=O)N4C)C)OC [XMD8-85] + N=C(N)NC(=N)NCCc1ccccc1 [Phenformin] (partner 250 µM)
# How it was run: as §1
# 4EGI-1 + Vorinostat = compound: O=C(O)C(Cc1ccccc1[N+](=O)[O-])=NNc1nc(-c2ccc(Cl)c(Cl)c2)cs1 (mixture of isomers) [4EGI-1] + O=C(CCCCCCC(=O)Nc1ccccc1)NO [Vorinostat] (partner 1 µM)
# How it was run: as §1
cell line,measurement,setting,value
PC-14,relative viability,XMD8-85 + Vorinostat; first compound 0.08 µM,0.463
same,relative viability,XMD8-85 + Vorinostat; first compound 0.253 µM,0.566
same,relative viability,XMD8-85 + Vorinostat; first compound 0.8 µM,0.667
same,relative viability,XMD8-85 + Vorinostat; first compound 8 µM,0.327
same,relative viability,4EGI-1 + Lapatinib; first compound 0.5 µM,0.355
same,relative viability,4EGI-1 + Lapatinib; first compound 1.581 µM,0.353
same,relative viability,4EGI-1 + Lapatinib; first compound 5 µM,0.371
same,relative viability,4EGI-1 + Lapatinib; first compound 50 µM,0.296
same,relative viability,XMD8-85 + Phenformin; first compound 0.08 µM,0.524
same,relative viability,XMD8-85 + Phenformin; first compound 0.253 µM,0.66
same,relative viability,XMD8-85 + Phenformin; first compound 0.8 µM,0.575
same,relative viability,XMD8-85 + Phenformin; first compound 2.53 µM,0.611
same,relative viability,XMD8-85 + Phenformin; first compound 8 µM,0.193
same,relative viability,4EGI-1 + Vorinostat; first compound 0.5 µM,0.865
same,relative viability,4EGI-1 + Vorinostat; first compound 5 µM,0.824
same,relative viability,4EGI-1 + Vorinostat; first compound 15.81 µM,0.0883
same,relative viability,4EGI-1 + Vorinostat; first compound 50 µM,0.0654
RERF-LC-KJ,relative viability,XMD8-85 + Vorinostat; first compound 0.08 µM,0.656
same,relative viability,XMD8-85 + Vorinostat; first compound 0.253 µM,0.671
same,relative viability,XMD8-85 + Vorinostat; first compound 0.8 µM,0.849
same,relative viability,XMD8-85 + Vorinostat; first compound 2.53 µM,0.685
same,relative viability,XMD8-85 + Vorinostat; first compound 8 µM,0.43
same,relative viability,4EGI-1 + Lapatinib; first compound 0.5 µM,0.93
same,relative viability,4EGI-1 + Lapatinib; first compound 1.581 µM,0.677
same,relative viability,4EGI-1 + Lapatinib; first compound 5 µM,0.808
same,relative viability,4EGI-1 + Lapatinib; first compound 15.81 µM,0.64
same,relative viability,4EGI-1 + Lapatinib; first compound 50 µM,0.644
same,relative viability,XMD8-85 + Phenformin; first compound 0.08 µM,0.46
same,relative viability,XMD8-85 + Phenformin; first compound 0.253 µM,0.445
same,relative viability,XMD8-85 + Phenformin; first compound 0.8 µM,0.406
same,relative viability,XMD8-85 + Phenformin; first compound 2.53 µM,0.379
same,relative viability,XMD8-85 + Phenformin; first compound 8 µM,0.326
same,relative viability,4EGI-1 + Vorinostat; first compound 0.5 µM,0.796
same,relative viability,4EGI-1 + Vorinostat; first compound 1.581 µM,0.434
same,relative viability,4EGI-1 + Vorinostat; first compound 5 µM,0.739
same,relative viability,4EGI-1 + Vorinostat; first compound 15.81 µM,0.58
same,relative viability,4EGI-1 + Vorinostat; first compound 50 µM,0.428
SK-LU-1,relative viability,XMD8-85 + Vorinostat; first compound 0.8 µM,0.92
same,relative viability,XMD8-85 + Vorinostat; first compound 2.53 µM,0.9
same,relative viability,XMD8-85 + Vorinostat; first compound 8 µM,0.694
same,relative viability,4EGI-1 + Lapatinib; first compound 0.5 µM,0.972
same,relative viability,4EGI-1 + Lapatinib; first compound 1.581 µM,1.06
same,relative viability,4EGI-1 + Lapatinib; first compound 5 µM,0.803
same,relative viability,4EGI-1 + Lapatinib; first compound 15.81 µM,0.698
same,relative viability,4EGI-1 + Lapatinib; first compound 50 µM,0.487
same,relative viability,XMD8-85 + Phenformin; first compound 0.08 µM,0.382
same,relative viability,XMD8-85 + Phenformin; first compound 0.253 µM,0.59
same,relative viability,XMD8-85 + Phenformin; first compound 0.8 µM,0.653
same,relative viability,XMD8-85 + Phenformin; first compound 2.53 µM,0.68
same,relative viability,XMD8-85 + Phenformin; first compound 8 µM,0.467
same,relative viability,4EGI-1 + Vorinostat; first compound 0.5 µM,0.717
same,relative viability,4EGI-1 + Vorinostat; first compound 1.581 µM,0.786
same,relative viability,4EGI-1 + Vorinostat; first compound 5 µM,0.817
same,relative viability,4EGI-1 + Vorinostat; first compound 15.81 µM,0.757
same,relative viability,4EGI-1 + Vorinostat; first compound 50 µM,0.289
SK-MES-1,relative viability,XMD8-85 + Vorinostat; first compound 0.08 µM,0.761
same,relative viability,XMD8-85 + Vorinostat; first compound 0.253 µM,1.27
same,relative viability,XMD8-85 + Vorinostat; first compound 0.8 µM,1.05
same,relative viability,XMD8-85 + Vorinostat; first compound 2.53 µM,1.03
same,relative viability,XMD8-85 + Vorinostat; first compound 8 µM,0.474
same,relative viability,4EGI-1 + Lapatinib; first compound 0.5 µM,0.51
same,relative viability,4EGI-1 + Lapatinib; first compound 1.581 µM,0.419
same,relative viability,4EGI-1 + Lapatinib; first compound 5 µM,0.479
same,relative viability,4EGI-1 + Lapatinib; first compound 15.81 µM,0.459
same,relative viability,4EGI-1 + Lapatinib; first compound 50 µM,0.395
same,relative viability,XMD8-85 + Phenformin; first compound 0.08 µM,0.699
same,relative viability,XMD8-85 + Phenformin; first compound 0.253 µM,0.624
same,relative viability,XMD8-85 + Phenformin; first compound 0.8 µM,0.645
same,relative viability,XMD8-85 + Phenformin; first compound 2.53 µM,0.643
same,relative viability,XMD8-85 + Phenformin; first compound 8 µM,0.427
same,relative viability,4EGI-1 + Vorinostat; first compound 0.5 µM,1.09
same,relative viability,4EGI-1 + Vorinostat; first compound 1.581 µM,0.938
same,relative viability,4EGI-1 + Vorinostat; first compound 5 µM,1.1
same,relative viability,4EGI-1 + Vorinostat; first compound 15.81 µM,0.728
same,relative viability,4EGI-1 + Vorinostat; first compound 50 µM,0.228
SW 1573,relative viability,XMD8-85 + Vorinostat; first compound 0.08 µM,0.643
same,relative viability,XMD8-85 + Vorinostat; first compound 0.253 µM,0.739
same,relative viability,XMD8-85 + Vorinostat; first compound 0.8 µM,1.11
same,relative viability,XMD8-85 + Vorinostat; first compound 2.53 µM,0.596
same,relative viability,XMD8-85 + Vorinostat; first compound 8 µM,0.46
same,relative viability,4EGI-1 + Lapatinib; first compound 0.5 µM,1.33
same,relative viability,4EGI-1 + Lapatinib; first compound 1.581 µM,0.86
same,relative viability,4EGI-1 + Lapatinib; first compound 5 µM,1.17
same,relative viability,4EGI-1 + Lapatinib; first compound 15.81 µM,0.898
same,relative viability,4EGI-1 + Lapatinib; first compound 50 µM,1.17
same,relative viability,XMD8-85 + Phenformin; first compound 0.08 µM,0.466
same,relative viability,XMD8-85 + Phenformin; first compound 0.253 µM,0.37
same,relative viability,XMD8-85 + Phenformin; first compound 0.8 µM,0.392
same,relative viability,XMD8-85 + Phenformin; first compound 2.53 µM,0.389
same,relative viability,XMD8-85 + Phenformin; first compound 8 µM,0.306
same,relative viability,4EGI-1 + Vorinostat; first compound 0.5 µM,1.09
same,relative viability,4EGI-1 + Vorinostat; first compound 1.581 µM,0.787
same,relative viability,4EGI-1 + Vorinostat; first compound 5 µM,0.48
same,relative viability,4EGI-1 + Vorinostat; first compound 15.81 µM,0.455
same,relative viability,4EGI-1 + Vorinostat; first compound 50 µM,0.164
UMC-11,relative viability,XMD8-85 + Vorinostat; first compound 0.08 µM,0.45
same,relative viability,XMD8-85 + Vorinostat; first compound 0.253 µM,0.367
same,relative viability,XMD8-85 + Vorinostat; first compound 0.8 µM,0.441
same,relative viability,XMD8-85 + Vorinostat; first compound 2.53 µM,0.296
same,relative viability,XMD8-85 + Vorinostat; first compound 8 µM,0.22
same,relative viability,4EGI-1 + Lapatinib; first compound 0.5 µM,1.19
same,relative viability,4EGI-1 + Lapatinib; first compound 1.581 µM,0.825
same,relative viability,4EGI-1 + Lapatinib; first compound 5 µM,1.31
same,relative viability,4EGI-1 + Lapatinib; first compound 15.81 µM,1.17
same,relative viability,4EGI-1 + Lapatinib; first compound 50 µM,0.669
same,relative viability,XMD8-85 + Phenformin; first compound 0.08 µM,0.337
same,relative viability,XMD8-85 + Phenformin; first compound 0.253 µM,0.348
same,relative viability,XMD8-85 + Phenformin; first compound 0.8 µM,0.398
same,relative viability,XMD8-85 + Phenformin; first compound 2.53 µM,0.33
same,relative viability,XMD8-85 + Phenformin; first compound 8 µM,0.232
same,relative viability,4EGI-1 + Vorinostat; first compound 0.5 µM,0.448
same,relative viability,4EGI-1 + Vorinostat; first compound 1.581 µM,0.408
same,relative viability,4EGI-1 + Vorinostat; first compound 5 µM,0.449
same,relative viability,4EGI-1 + Vorinostat; first compound 15.81 µM,0.446
same,relative viability,4EGI-1 + Vorinostat; first compound 50 µM,0.296
